Where two headings read alike, the source gives them in different places.
Experiment: Clinical pharmacokinetics, plasma LC-MS/MS after single oral dose of AP capsules
Format: in vivo, human (healthy volunteers)
Conditions: for concentration at 5 h / concentration at 6 h / concentration at 8 h / concentration at 10 h / concentration at 12 h / concentration at 24 h / concentration at 0 h / concentration at 0.5 h / concentration at 1 h / concentration at 1.5 h / concentration at 2 h / concentration at 2.5 h / concentration at 3 h / concentration at 3.5 h / concentration at 4 h: oral, 2000 mg; for concentration at 5 h / concentration at 6 h / concentration at 8 h / concentration at 10 h / concentration at 12 h / concentration at 24 h / concentration at 0 h / concentration at 0.5 h / concentration at 1 h / concentration at 1.5 h / concentration at 2 h / concentration at 2.5 h / concentration at 3 h / concentration at 3.5 h / concentration at 4 h / Mean concentration: 2000 mg AP capsules
Protocol: The protocol was published (Tee et al. [2022]).
Seven calibrators ranging from 1, 2, 5,10, 20, 50, and 100 ng mL^−1 were prepared. Frozen plasma was thawed, vortexed-mixes, and processed via protein precipitation: 50 µL plasma plus 100 µL 0.01% ammonia in methanol were vortexed (20 s), centrifuged (14800 rpm, 5 min) and […] supernatant was transferred to 2 mL vials with inserts. LC–MS/MS injection volume: 10 µL. The separation used a Phenomenex Gemini-NX C18 column (150 × 2.1 mm, 5 μm) with 0.01% ammonia (A) and acetonitrile/methanol (1:1, B) as mobile phases (0.30 mL min^-1). The gradient program: 40% B (0 min), linear increase to 95% B (3 min), hold to 5 min, sharp decrease to 10% B (5.01 min), hold to 7 min, return to 40% B (7.01 min), and re-equilibration to 10 min. Mass detection employed an LCMS-8060NX triple quadrupole with heated ESI in negative mode, monitoring specific MRM transitions: andrographolide (349.3 → 331.2/287.1), 14-deoxyandrographolide (331.2 → 108.0/301.1), and neoandrographolide (479.1 → 317.4/161.1).
Pharmacokinetic parameters were determined from plasma samples (5 subjects, 15 time points) analyzed via LC–MS/MS (Shimadzu 8060NX). […] Specific MRM transitions for andrographolide, 14-deoxyandrographolide, and neoandrographolide in plasma samples of subjects are illustrated in Figure S3. […] The dose-dependent concentration–time curves, pharmacokinetics profiles (Fig. 2a, b and c) and comprehensive individual PK data (Table S4) provide a foundation for developing personalized AP dosing regimens, supporting its precision medicine potential.

[1] = human, plasma, 2000 mg AP capsules oral, fasting, n=5

concentration at 5 h (human, plasma, S4, 5.00 h, read-out: Plasma concentration): 0 ng/mL
concentration at 6 h (human, plasma, S4, 6.00 h, read-out: Plasma concentration): 0 ng/mL
concentration at 8 h (human, plasma, S4, 8.00 h, read-out: Plasma concentration): 0 ng/mL
concentration at 10 h (human, plasma, S4, 10.00 h, read-out: Plasma concentration): 0 ng/mL
concentration at 12 h (human, plasma, S4, 12.00 h, read-out: Plasma concentration): 0 ng/mL
concentration at 24 h (human, plasma, S4, 24.00 h, read-out: Plasma concentration): 0 ng/mL
concentration at 0 h (human, plasma, S5, 0.00 h, read-out: Plasma concentration): 0 ng/mL
concentration at 0.5 h (human, plasma, S5, 0.50 h, read-out: Plasma concentration): 0 ng/mL
concentration at 1 h (human, plasma, S5, 1.00 h, read-out: Plasma concentration): 0 ng/mL
concentration at 1.5 h (human, plasma, S5, 1.50 h, read-out: Plasma concentration): 2.52 ng/mL
concentration at 2 h (human, plasma, S5, 2.00 h, read-out: Plasma concentration): 3.77 ng/mL
concentration at 2.5 h (human, plasma, S5, 2.50 h, read-out: Plasma concentration): 3.17 ng/mL
concentration at 3 h (human, plasma, S5, 3.00 h, read-out: Plasma concentration): 2.38 ng/mL
concentration at 3.5 h (human, plasma, S5, 3.50 h, read-out: Plasma concentration): 1.59 ng/mL
concentration at 4 h (human, plasma, S5, 4.00 h, read-out: Plasma concentration): 0.54 ng/mL
concentration at 5 h (human, plasma, S5, 5.00 h, read-out: Plasma concentration): 1.62 ng/mL
concentration at 6 h (human, plasma, S5, 6.00 h, read-out: Plasma concentration): 1.12 ng/mL
concentration at 8 h (human, plasma, S5, 8.00 h, read-out: Plasma concentration): 0 ng/mL
concentration at 10 h (human, plasma, S5, 10.00 h, read-out: Plasma concentration): 0 ng/mL
concentration at 12 h (human, plasma, S5, 12.00 h, read-out: Plasma concentration): 0 ng/mL
concentration at 24 h (human, plasma, S5, 24.00 h, read-out: Plasma concentration): 0 ng/mL
concentration at 0 h (human, plasma, mean n=5, 0.00 h, read-out: Mean concentration): 0 ng/mL
concentration at 0.5 h (human, plasma, mean n=5, 0.50 h, read-out: Mean concentration): 8.62 ng/mL
concentration at 1 h (human, plasma, mean n=5, 1.00 h, read-out: Mean concentration): 7.7 ng/mL
concentration at 1.5 h (human, plasma, mean n=5, 1.50 h, read-out: Mean concentration): 10.2 ng/mL
concentration at 2 h (human, plasma, mean n=5, 2.00 h, read-out: Mean concentration): 6.21 ng/mL
concentration at 2.5 h (human, plasma, mean n=5, 2.50 h, read-out: Mean concentration): 3.4 ng/mL
concentration at 3 h (human, plasma, mean n=5, 3.00 h, read-out: Mean concentration): 3.02 ng/mL
concentration at 3.5 h (human, plasma, mean n=5, 3.50 h, read-out: Mean concentration): 1.3 ng/mL
concentration at 4 h (human, plasma, mean n=5, 4.00 h, read-out: Mean concentration): 0.11 ng/mL
concentration at 5 h (human, plasma, mean n=5, 5.00 h, read-out: Mean concentration): 0.32 ng/mL
concentration at 6 h (human, plasma, mean n=5, 6.00 h, read-out: Mean concentration): 0.22 ng/mL
concentration at 8 h (human, plasma, mean n=5, 8.00 h, read-out: Mean concentration): 0 ng/mL
concentration at 10 h (human, plasma, mean n=5, 10.00 h, read-out: Mean concentration): 0 ng/mL
concentration at 12 h (human, plasma, mean n=5, 12.00 h, read-out: Mean concentration): 0 ng/mL
concentration at 24 h (human, plasma, mean n=5, 24.00 h, read-out: Mean concentration): 0 ng/mL
AUC(0-inf) [1]: 20.9 ng·h/mL
AUC(0-t) [1]: 20.7 ng·h/mL
Cmax [1]: 10.2 ng/mL
Tmax [1]: 1.5 h
half-life [1]: 43.2 min
Mean concentration (mean n=5, 0.00 h): 0 ng/mL
Mean concentration (mean n=5, 0.50 h): 8.622 ng/mL
Mean concentration (mean n=5, 1.00 h): 7.6996 ng/mL
Mean concentration (mean n=5, 1.50 h): 10.145 ng/mL
Mean concentration (mean n=5, 2.00 h): 6.2104 ng/mL
Mean concentration (mean n=5, 2.50 h): 3.3999 ng/mL
Mean concentration (mean n=5, 3.00 h): 3.0233 ng/mL
Mean concentration (mean n=5, 3.50 h): 1.2987 ng/mL
Mean concentration (mean n=5, 4.00 h): 0.1073 ng/mL
Mean concentration (mean n=5, 5.00 h): 0.3249 ng/mL
Mean concentration (mean n=5, 6.00 h): 0.2247 ng/mL
Mean concentration (mean n=5, 8.00 h): 0 ng/mL
Mean concentration (mean n=5, 10.00 h): 0 ng/mL
Mean concentration (mean n=5, 12.00 h): 0 ng/mL
Mean concentration (mean n=5, 24.00 h): 0 ng/mL
SMILES: C=C1CC[C@@H]2[C@](C)(CO)[C@H](O)CC[C@@]2(C)[C@@H]1C/C=C1/C(=O)OC[C@H]1O [andrographolide]

— article PMC12935787, “Clinical pharmacokinetics and pharmacometabolomics of Andrographis paniculata capsules: Bridging drug disposition and metabolic response to precision medicine” (Naunyn-Schmiedeberg's Archives of Pharmacology, 2025)
